Among the data in the OPERA property sets (Mansouri et al. 2018) are logP values, retold here.

In the case of `O=NN(CCCl)C(=O)NC1CCC(C(=O)O)CC1` (stereo not drawn), the logP – broadly, the decadic logarithm of the partition coefficient of the neutral form, usually between octanol and water – was 1.68.

`CCCCNc1ccc(C(=O)OCCOCCOCCOCCOCCOCCOCCOCCOCCOC)cc1`: the lipophilicity (logP) turned out to be 2.45. On to `CN(C)CC(O)c1ccccc1` (stereo not drawn), for which the logP came out at 1.54. As for `Cc1[nH]cnc1CSCCNc1[nH]ccc(=O)c1[N+](=O)[O-]`, the logP is -0.2. In the case of `CC(=O)Oc1cccc2cccnc12` it was 2.03; in that of `CC1=CC(=O)C=C(C)C1=O`, 1.22.

The compound `CN(C)CCCc1ccco1` displayed a lipophilicity (logP) of 2.08. `CNC(=O)Oc1ccc(C)c(C)c1` gave a logP of 2.09. Take `Cc1cc(N)ccc1Br`: the logP is 2.53. The compound `CN(C)C(N(C)C)=S(I)c1cc(Cl)ccc1Cl` (stereo not drawn) showed a logP of 0.05.

The compound `O=C1CCCO1` gave a logP of -0.64. `CC(=O)C1CC1` displayed a logP of 0.49. As to `CCC(C)N(CC(O)COc1ccccc1)CC(O)COc1ccccc1` (stereo not drawn), the logP stood at 3.46. In the case of `CC1NC(=O)C(CC(=O)NC(Cc2c[nH]c3ccccc23)C(=O)NC(Cc2ccccc2)C(=O)N(C)Cc2ccccc2)NC1=O` (stereo not drawn) it was 3.18.

`CN1CCN(Cc2ccc(C(=O)OCn3ncc4c(=O)[nH]cnc43)cc2)CC1` returned a logP of 1.47.

In turn, `O=C(NP(=O)(N1CC1)N1CC1)c1ccc(Br)cc1` gave a logP of 1.63. `CN(C)C(=S)NN` gave a lipophilicity (logP) of -0.3. In the case of `O=C(O)COc1cccc(C(=O)O)c1` it was 1.11. The same measure for `Fc1cccc(C2CNCCO2)c1` (stereo not drawn): 1.42; for `ICCCc1ccccc1`: 3.9; for `CC(C)NC(=O)NO`: 0.2. In the case of `O=C1CCC(=O)N1c1ccc(Br)cc1` it was 1.18; in that of `O=C(Nc1ccccc1)NC1CC(O)C(CO)OC1O` (stereo not drawn), -0.61; in that of `O=[N+]([O-])c1ncn(CC(F)CO)n1` (stereo not drawn), -0.8. Compound `O=C(O)COc1ccccc1F` yielded a logP of 1.39. In the case of `O=C(NC(=O)c1ccccc1O)c1ccccc1O` it was 1.92.

Regarding `CCOc1cccc(O)c1`, the logP turned out to be 1.98. In turn, `C=CCOc1ccccc1Cc1cnc(N)nc1N` showed a logP of 2.31. `FC(F)(F)c1ccccc1`: the logP is 3.01. On to `Clc1cccc2c1CCNCC2`, for which the logP is 2.4. The same measure for `CC(=O)Nc1ccc(C(=O)O)cc1`: 1.31; for `CC1=NN(CCOc2ccc3ccccc3c2)C(=O)C1`: 2.74; for `N#Cc1ccc[nH]1`: 1.13. In the case of `O=C(O)c1cccc(O)c1O` it was 1.2.

As to `CCCOc1ccccc1`, the logP is 3.18. The same measure for `C=C(Br)CC1(C(C)C)C(=O)NC(=O)NC1=O`: 1.47. `O=C[C@H](O)[C@@H](O)[C@H](O)[C@H](O)C(=O)O` gave a logP of -2.57.

`Cc1ccc(NC2=NCCN2)c(Cl)c1` had a logP of 1.8. In the case of `c1ccc(-c2cccnc2)nc1` it was 1.46. `O=C1c2ccccc2C(=O)C1c1ccccc1`: the logP stood at 2.9.

`O=c1[nH]c(=O)n([C@H]2C[C@H](O)[C@@H](CO)O2)cc1Br` returned a logP of -0.29. In the case of `NC(=O)c1ccc(F)cc1` it was 0.91; in that of `CCCCC(C)(C)c1ccc(C2CCCC(O)C2)c(O)c1` (stereo not drawn), 5.43; in that of `CC(=O)Oc1cccc(O)c1`, 1.23.

In turn, `O=[N+]([O-])c1cccc(Cl)c1Cl` had a logP of 3.05. As for `N=C(N)c1ccc(N)cc1`, the logP was -0.37. The compound `O=C(O)COc1cccc([N+](=O)[O-])c1` registered a logP of 1.37. The same measure for `CCN(CC)N=Nc1ccc([N+](=O)[O-])cc1`: 4.17; for `CN(C)C(N(C)C)=S(I)c1ccccc1I` (stereo not drawn): 0.3; for `O=C(c1ccccc1)c1cccc(NS(=O)(=O)C(F)F)c1`: 2.86. As for `Nc1ccc(C(=O)Oc2ccccc2Br)c(O)c1`, the logP came out at 3.74. The same measure for `CCOCC`: 0.89; for `C/C=N/O`: -0.13. As for `CC(=O)OCC(=O)[C@@]12OC(C)(C)O[C@@H]1C[C@H]1[C@@H]3C[C@H](F)C4=CC(=O)C=C[C@]4(C)[C@@]3(F)[C@@H](O)C[C@@]12C`, the logP was found to be 3.19.

`CC(=O)COc1ccccc1` came in with a logP of 1.04. As to `CCC(=O)C(CC(C)N(C)C)(c1ccccc1)c1ccccc1` (stereo not drawn), the logP was 3.93.

Consider `OC[C@H]1O[C@@H](n2cnc3c(O)ncnc32)[C@H](O)[C@@H]1O`, for which the logP is -2.1. In the case of `NS(=O)(=O)c1nc2ccc(Cl)cc2s1` it was 2.1; in that of `Nc1ccc(Cl)c([N+](=O)[O-])c1`, 2.06; in that of `CCN1CC(C(O)C(CC2CCCCC2)NC(=O)C(Cc2cnc[nH]2)NC(=O)C(CC(=O)N(C)CCO)Cc2ccccc2)OC1=O` (stereo not drawn), 1.94. In the case of `C=O` it was 0.35. In the case of `COc1cc(S(C)=O)ccc1-c1nc2ccncc2[nH]1` (stereo not drawn) it was 1.25; in that of `COc1cc([C@@H]2c3cc4c(cc3C(O[C@@H]3O[C@@H]5CO[C@@H](C)O[C@H]5[C@H](O)[C@H]3O)C3COC(=O)[C@@H]32)OCO4)cc(OC)c1O` (stereo partly drawn), 0.6. In turn, `O=c1[nH]cc(Cl)c(=O)[nH]1` returned a logP of -0.35. With `Brc1ccccn1`, the logP was found to be 1.42. `O=C(O)COc1ccc(S(=O)(=O)F)cc1` showed a lipophilicity (logP) of 1.82. The same measure for `NC(=O)C=Cc1ccccc1`: 1.43. The same measure for `O=C(O)CC(O)C(=O)O` (stereo not drawn): -1.26; for `CC1=C(C(=O)Nc2ccccc2)SCCO1`: 2.14. In the case of `ClC(Cl)(Cl)Sc1ccccc1` it was 3.78; in that of `CN(C)C(CSS(=O)(=O)c1ccccc1)CSS(=O)(=O)c1ccccc1`, 3.36. `Nc1ccc(S(=O)(=O)c2ccc(F)cc2)cc1`: the logP came to 2.17.

`O=C(O)CCCCN1C(=O)C=CC1=O` registered a logP of 0.6. In the case of `Nc1cnc2ccccc2c1` it was 1.63.

`CC(=O)Oc1ccc(N)cc1` came in with a logP of 0.45. The same measure for `CNC(=O)Oc1ccccc1C`: 1.46; for `O=c1cc(-c2ccccc2)o[nH]1`: 2.55; for `CN(C)C(=O)C=Cc1ccccc1`: 1.73. The same measure for `CC(=O)Nc1ccc(S(I)=C(N(C)C)N(C)C)cc1` (stereo not drawn): -1.58; for `CCCCOC(N)=O`: 0.85; for `CCN(CC)CCOC(=O)C=Cc1ccc(F)cc1`: 3.52. In the case of `O=[N+]([O-])O[C@H]1CO[C@H]2[C@@H]1OC[C@H]2O[N+](=O)[O-]` it was 1.31; in that of `CC(=O)Nc1ccc([N+](=O)[O-])cc1`, 1.66. In the case of `COC(=O)CCC(=O)OC`, the lipophilicity (logP) is 0.35.

For the compound `Cl[C@@H]1CCCC[C@H]1Cl`, the logP came to 3.21. In turn, `CCCCCCCCn1cc(C)c(=O)[nH]c1=O` came in with a logP of 3.08. The same measure for `Cc1cccc2c(N)cnnc12`: 1.57. The compound `Nc1ccc2cc3ccccc3nc2c1` displayed a logP of 2.77. In the case of `N#CC(Cl)(Cl)Cl` it was 2.09; in that of `ClCBr`, 1.41; in that of `O=C(NCCO)C(F)(F)Cn1ccnc1[N+](=O)[O-]`, -0.52. In the case of `OCCN1CCN(CCC=C2c3ccccc3Sc3ccc(Cl)cc32)CC1` it was 4.18. The same measure for `CC(C)(C)C#N`: 1.08; for `c1nnnn1C12CC3CC(CC(C3)C1)C2`: 2.95. For `O=C(O)Cc1ccc(Cl)cc1`, the log partition coefficient (logP) came to 2.12. The same measure for `CCCCNC(=O)NS(=O)(=O)c1ccc(Cl)cc1`: 2.81; for `CCCCC(=O)OCC1CCC(n2cnc3c(=O)[nH]cnc32)O1` (stereo not drawn): 0.65. In the case of `COc1ccc(C=C(C(C)=O)C(C)=O)c(OC)c1`, the logP is 1.88. For `NC(=O)c1ccc(O)cc1`, the logP came to 0.33. In the case of `Nc1ccc2nccnc2c1` it was 0.9; in that of `Nc1cc(N=O)ccc1O`, 0.03.

`Brc1cc(Br)c(Br)cc1Br` returned a logP of 5.13.

The compound `CCCCOCN(C(=O)CCl)c1c(CC)cccc1CC` gave a logP of 4.5.

The compound `CNc1ccc(C)cc1` displayed a log partition coefficient (logP) of 2.15. In the case of `CN(C)c1cccnn1` it was 0.29; in that of `Nc1ccc2ccccc2c1`, 2.28; in that of `CC(=O)C=Cc1ccccc1`, 2.07. In the case of `O=C(O)c1ccc2ccccc2c1` it was 3.28; in that of `Cc1cncc(C)c1`, 1.78. In the case of `Cc1ccc(NC(=O)c2cccnc2)cc1` it was 2.08. As to `O=S1(=O)OC(c2ccc(O)cc2)(c2ccc(O)cc2)c2ccccc21`, the logP turned out to be 3.02. In turn, `Oc1ccccc1Br` gave a logP of 2.35.

Consider `Brc1ccc2[nH]ccc2c1`, for which the logP amounted to 3. The same measure for `Clc1cc(Cl)c(-c2cccc(Cl)c2Cl)cc1Cl`: 6.67.

Compound `CCOC(=O)NC1=C(N2CC2)C(=O)C(NC(=O)OCC)=C(N2CC2)C1=O` registered a logP of -0.02. In turn, `Clc1ccc(-c2ccc(Cl)c(Cl)c2Cl)c(Cl)c1Cl` gave a logP of 7.31. The same measure for `FC(F)(Cl)C(F)(Cl)Cl`: 3.16. Take `O=C(O)Cc1cccc(Br)c1`: the log partition coefficient (logP) worked out at 2.37.

As to `CCCOc1c(OC)cc(CCN)cc1OC`, the logP stood at 1.7.

`COP(=S)(OC)Oc1nc(Cl)c(Cl)cc1Cl` gave a logP of 4.31.

For the compound `CN(C)CCN1c2ccccc2Sc2ccccc21`, the logP was 4.2. In the case of `COc1cnnc2ccccc12` it was 1.41; in that of `c1cnc2c(c1)ccc1cccnc12`, 1.78. For the compound `CNCC(O)c1ccc(O)c(OC)c1` (stereo not drawn), the logP is -0.64.

Regarding `CC(=O)N[C@@H](Cc1ccccc1)C(=O)N[C@@H](CCC(N)=O)C(N)=O`, the logP was -1.03. In the case of `NCCCc1ccccn1` it was 0.49; in that of `Nc1cn[nH]c1`, -1.09; in that of `CC(=O)N[C@@H](CC(C)C)C(=O)N[C@@H](CC(N)=O)C(N)=O`, -1.3. `Cc1cn(C2OC(CO)C(O)C2O)c(=O)nc1N` (stereo not drawn) had a log partition coefficient (logP) of -2.01. Take `COC(=O)c1cc(Oc2ccc(Cl)cc2Cl)ccc1[N+](=O)[O-]`: the logP turned out to be 4.48. In the case of `c1ncc2nc[nH]c2n1` it was -0.37; in that of `O=[N+]([O-])c1ccc(Cl)cc1`, 2.39. In turn, `COc1cc(C(C)(C)C)c(OC)cc1CC(C)N` (stereo not drawn) yielded a logP of 3.91.
